# According to PMC6385358, “Discovery of ((1,2,4-oxadiazol-5-yl)pyrrolidin-3-yl)ureidyl derivatives as selective non-steroidal agonists of the G-protein coupled bile acid receptor-1” (Scientific Reports, 2019):
# Molecular target: T1, GPBAR1 (Homo sapiens, UniProt Q8TDU6)
# T1 construct: expressed in transfected cells; host or cells: HEK-293T
# T1 sequence (Q8TDU6 1-330): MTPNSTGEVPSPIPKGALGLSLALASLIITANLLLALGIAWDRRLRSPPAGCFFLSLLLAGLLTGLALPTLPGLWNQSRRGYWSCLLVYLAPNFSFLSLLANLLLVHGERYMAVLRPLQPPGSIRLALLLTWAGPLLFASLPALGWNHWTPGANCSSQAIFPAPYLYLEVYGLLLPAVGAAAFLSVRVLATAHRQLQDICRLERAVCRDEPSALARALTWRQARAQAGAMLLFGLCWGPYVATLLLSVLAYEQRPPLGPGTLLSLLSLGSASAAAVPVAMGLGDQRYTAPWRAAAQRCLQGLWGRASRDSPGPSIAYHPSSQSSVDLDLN
# Experiment: Luciferase reporter (CRE) transactivation assay in HEK-293T cells transfected with GPBAR1
# Type: cell-based
# Conditions: for Emax at 10 µM: HEK-293T, maximal transactivation of CRE, compound 10 μM vs TLCA 10 μM = 100%, read-out: Efficacy (% vs TLCA)
# Method: The activity of compounds 1–14 on GPBAR1 was evaluated in a luciferase reporter assay using HEK-293T cells transfected with GPBAR1. The efficacy of tested compounds (Table 1) was measured using taurolithocholic acid (TLCA) as GPBAR1 reference compound[10],[11]. Each compound was tested at the concentration of 10 μM and transactivation activity of TLCA on a cAMP responsive element (CRE) (i.e. TGR5/GPBAR1) was considered equal to 100%. […] Thus, 9 and 10 (Table 1) turned out to be the most promising derivatives considering their low EC50 values and high activity efficacy. To further characterize the pharmacological properties of these compounds, we expanded their in vitro profile to common off-targets for bile acid receptor ligands.
# Transactivation assay on HEK-293T cells was performed to investigate GPBAR1 activation, using compound 1–14 and TLCA as positive control at 10 µM, as previously reported.
# Supplementary Figure S4. HEK-293T cells were transiently transfected with GPBAR1 and a reporter gene containing a cAMP responsive element in front of the luciferase gene. Cells were stimulated with compounds A-L (10 μM). TLCA (10 μM) was used as positive control. Luciferase activity served as a measure of the rise in intracellular cAMP following activation of GPBAR1. In all panels, results are expressed as mean ± standard error. ^∗p < 0.05 versus not treated cells (NT).
SMILES,Emax at 10 µM,"GPBAR1 agonist activity in transactivation assay (10 μM, compared to TLCA)"
[N-]=[N+]=N[C@@H]1CN[C@H](c2nc(-c3ccccc3)no2)C1 [Compound 2],58 to 121%,–
O=C(NCc1ccccc1)N[C@@H]1CN[C@H](c2nc(-c3ccccc3)no2)C1 [Compound 11],58 to 121%,–
O[C@H]1CN[C@H](c2nc(-c3ccccc3)no2)C1 [Compound 1],58 to 121%,–
N[C@@H]1CN[C@H](c2nc(-c3ccccc3)no2)C1 [Compound 3],58 to 121%,–

# Next, values leading:
Emax at 10 µM,"GPBAR1 agonist activity in transactivation assay (10 μM, compared to TLCA)",SMILES
58 to 121%,–,Cc1ccc(NC(=O)N[C@@H]2CN[C@H](c3nc(-c4ccccc4)no3)C2)cc1 [Compound 6]
58 to 121%,moderate GPBAR1 agonist activity,O=C(Nc1ccc(C(F)(F)F)cc1)N[C@@H]1CN[C@H](c2nc(-c3ccccc3)no2)C1 [Compound 4]
